Several values for one entry are separate records, joined by “and”; a condition that tells them apart may be missing. Identical values can stand only once. Inconclusive results and toxic doses are left out.
Test system: CD2F1 mice, L1210 leukemia ip, survival T/C
Experiment: NCI In Vivo Anticancer Drug Screen. Data for tumor model L1210 Leukemia (intraperitoneal) in CD2F1 (CDF1) mice
Conditions: higher = longer survival
Outline: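 Ratio T/C, where T is the treated-group value and C the vehicle-dosed control value, from mice implanted with a transplantable tumor.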

[1] = endpoint: mean survival time, dose: 100.0 mg/kg/injection, schedule: Q01DX009 (ip), vehicle: saline with Tween-80
[2] = endpoint: mean survival time, dose: 100.0 mg/kg/injection, schedule: Q04DX003 (ip), vehicle: saline with Tween-80
[3] = endpoint: mean survival time, dose: 200.0 mg/kg/injection, schedule: Q01DX009 (ip), vehicle: saline with Tween-80
[4] = endpoint: mean survival time, dose: 200.0 mg/kg/injection, schedule: Q04DX003 (ip), vehicle: saline with Tween-80
[5] = endpoint: mean survival time, dose: 400.0 mg/kg/injection, schedule: Q01DX009 (ip), vehicle: saline with Tween-80
[6] = endpoint: mean survival time, dose: 400.0 mg/kg/injection, schedule: Q04DX003 (ip), vehicle: saline with Tween-80
[7] = endpoint: mean survival time, dose: 12.5 mg/kg/injection, schedule: Q01DX009 (ip), vehicle: saline with Tween-80
[8] = endpoint: mean survival time, dose: 25.0 mg/kg/injection, schedule: Q01DX009 (ip), vehicle: saline with Tween-80
[9] = endpoint: mean survival time, dose: 50.0 mg/kg/injection, schedule: Q01DX009 (ip), vehicle: saline with Tween-80

Question: `CNC(=O)Oc1ccc(S(=O)(=O)c2ccc(OC(=O)NC)cc2)cc1` was tested. Which T/C (endpoint: median survival time, dose: 12.5 mg/kg/injection, schedule: Q01DX009 (ip), vehicle: saline with Tween-80) did it give?
Answer: The T/C was 103 % of control.

Question: What about the T/C (endpoint: median survival time, dose: 25.0 mg/kg/injection, schedule: Q01DX009 (ip), vehicle: saline with Tween-80) of the same compound?
Answer: The T/C was 115 % of control and 112 % of control.

Question: And the T/C (endpoint: median survival time, dose: 43.0 mg/kg/injection, schedule: Q01DX005 (ip), vehicle: saline with Tween-80)?
Answer: Its T/C is 113 % of control.

Question: And the T/C (endpoint: median survival time, dose: 43.0 mg/kg/injection, schedule: Q01DX009 (ip), vehicle: saline with Tween-80)?
Answer: The T/C was 102 % of control.

Question: And the T/C (endpoint: median survival time, dose: 50.0 mg/kg/injection, schedule: Q01DX009 (ip), vehicle: saline with Tween-80)?
Answer: The T/C was 120 % of control.

Question: And the T/C (endpoint: median survival time, dose: 72.0 mg/kg/injection, schedule: Q01DX005 (ip), vehicle: saline with Tween-80)?
Answer: The T/C was 108 % of control and 109 % of control.

Question: And the T/C (endpoint: median survival time, dose: 72.0 mg/kg/injection, schedule: Q01DX009 (ip), vehicle: saline with Tween-80)?
Answer: Its T/C is 101 % of control.

Question: And the T/C (endpoint: median survival time, dose: 100.0 mg/kg/injection, schedule: Q01DX009 (ip), vehicle: saline with Tween-80)?
Answer: The T/C was 122 % of control.

Question: And the T/C (endpoint: median survival time, dose: 120.0 mg/kg/injection, schedule: Q01DX005 (ip), vehicle: saline with Tween-80)?
Answer: Its T/C is 109 % of control and 112 % of control.

Question: What about the T/C (endpoint: median survival time, dose: 120.0 mg/kg/injection, schedule: Q01DX009 (ip), vehicle: saline with Tween-80) of the same compound?
Answer: Its T/C is 106 % of control.

Question: What about the T/C (endpoint: median survival time, dose: 200.0 mg/kg/injection, schedule: Q01DX005 (ip), vehicle: saline with Tween-80) of the same compound?
Answer: The T/C was 104 % of control and 109 % of control.

Question: And the T/C (endpoint: median survival time, dose: 200.0 mg/kg/injection, schedule: Q01DX009 (ip), vehicle: saline with Tween-80)?
Answer: Its T/C is 151 % of control.

Question: And the T/C (endpoint: median survival time, dose: 333.0 mg/kg/injection, schedule: Q01DX005 (ip), vehicle: saline with Tween-80)?
Answer: The T/C was 109 % of control.

Question: For `CCOc1nc(OCC)nc(-c2cccn2-c2ccccc2)n1`, which T/C [1] is on record?
Answer: Its T/C is 95 % of control.

Question: What about the T/C [2] of the same compound?
Answer: Its T/C is 106 % of control.

Question: And the T/C [3]?
Answer: The T/C was 87 % of control.

Question: What about the T/C [4] of the same compound?
Answer: Its T/C is 100 % of control.

Question: And the T/C [5]?
Answer: The T/C was 93 % of control.

Question: And the T/C [6]?
Answer: The T/C was 98 % of control.

Question: Which T/C [7] does the source give for `CCCCC(=O)NN` here?
Answer: The T/C was 90 % of control.

Question: What about the T/C [8] of the same compound?
Answer: The T/C was 104 % of control.

Question: What about the T/C [9] of the same compound?
Answer: The T/C was 118 % of control.

Question: Which results are given for `COc1ccc2c(c1)CCC1=C2CCC2(C)C(=O)NC(=O)N12` (configuration not stated)?
Answer: T/C [2]: 98 % of control; T/C [4]: 96 % of control; T/C [6]: 98 % of control

Question: How did the T/C (endpoint: mean survival time, dose: 50.0 mg/kg/injection, schedule: Q01DX009 (ip), vehicle: saline) turn out when `c1ccc2nc(CCc3ccc4ccccc4n3)ccc2c1` was run?
Answer: The T/C was 96 % of control.

Question: And the T/C (endpoint: mean survival time, dose: 100.0 mg/kg/injection, schedule: Q01DX009 (ip), vehicle: saline)?
Answer: The T/C was 100 % of control.

Question: And the T/C (endpoint: mean survival time, dose: 200.0 mg/kg/injection, schedule: Q01DX009 (ip), vehicle: saline)?
Answer: Its T/C is 102 % of control.

Question: For `O=[N+]([O-])c1cc(S(=O)(=O)c2ccc(N3CCOCC3)c([N+](=O)[O-])c2)ccc1N1CCOCC1`, which T/C [1] is on record?
Answer: The T/C was 93 % of control.

Question: What about the T/C [3] of the same compound?
Answer: The T/C was 101 % of control.

Question: And the T/C [5]?
Answer: Its T/C is 92 % of control.

Question: How did the T/C (endpoint: mean survival time, dose: 6.25 mg/kg/injection, schedule: Q01DX005 (ip), vehicle: other) turn out when `c1coc(CNc2ncnc3c2ncn3Cc2ccco2)c1` was run?
Answer: The T/C was 96 % of control.

Question: And the T/C (endpoint: mean survival time, dose: 12.5 mg/kg/injection, schedule: Q01DX005 (ip), vehicle: other)?
Answer: The T/C was 90 % of control.

Question: What about the T/C (endpoint: mean survival time, dose: 25.0 mg/kg/injection, schedule: Q01DX005 (ip), vehicle: other) of the same compound?
Answer: The T/C was 90 % of control.

Question: Which T/C (endpoint: mean survival time, dose: 50.0 mg/kg/injection, schedule: Q01DX001 (ip), vehicle: saline with Tween-80) does the source give for `O=C(OC1=CCc2ccccc21)c1ccc([N+](=O)[O-])cc1` here?
Answer: Its T/C is 101 % of control.

Question: And the T/C (endpoint: mean survival time, dose: 100.0 mg/kg/injection, schedule: Q01DX001 (ip), vehicle: saline with Tween-80)?
Answer: The T/C was 96 % of control and 97 % of control.

Question: What about the T/C (endpoint: mean survival time, dose: 200.0 mg/kg/injection, schedule: Q01DX001 (ip), vehicle: saline with Tween-80) of the same compound?
Answer: The T/C was 121 % of control and 96 % of control.

Question: And the T/C (endpoint: mean survival time, dose: 400.0 mg/kg/injection, schedule: Q01DX001 (ip), vehicle: saline with Tween-80)?
Answer: The T/C was 95 % of control and 97 % of control.

Question: Which results are given for `CCc1nc2cc(C)c(C)cc2[nH]1`?
Answer: T/C [7]: 97 % of control; T/C [8]: 100 % of control; T/C (endpoint: mean survival time, dose: 25.0 mg/kg/injection, schedule: Q04DX003 (ip), vehicle: saline with Tween-80): 89 % of control; T/C [9]: 95 % of control; T/C (endpoint: mean survival time, dose: 50.0 mg/kg/injection, schedule: Q04DX003 (ip), vehicle: saline with Tween-80): 89 % of control; T/C [2]: 93 % of control

Question: `Cc1ccc(S(=O)(=O)OC2(c3ccc(C(F)(F)F)cc3)C3CCC2CC3)cc1` (configuration not stated) was tested. Which T/C (endpoint: mean survival time, dose: 12.5 mg/kg/injection, schedule: Q04DX002 (ip), vehicle: saline with Tween-80) did it give?
Answer: Its T/C is 104 % of control.

Question: What about the T/C (endpoint: mean survival time, dose: 25.0 mg/kg/injection, schedule: Q04DX002 (ip), vehicle: saline with Tween-80) of the same compound?
Answer: The T/C was 101 % of control.

Question: What about the T/C (endpoint: mean survival time, dose: 50.0 mg/kg/injection, schedule: Q04DX002 (ip), vehicle: saline with Tween-80) of the same compound?
Answer: The T/C was 104 % of control.
